Data on 26 compounds can be found in US9920010B2, “CXCR7 receptor modulators” (IDORSIA PHARMACEUTICALS LTD, priority 2013, dated 2018).

The term EC50 denotes the midpoint of the concentration-response curve. Read a high EC50 as weaker potency.

The target in this assay is T1, CXCR7 (Homo sapiens, UniProt P25106).
T1 construct: host or cells: CHO-K1 (PathHunter CHO-K1 CXCR7 b-arrestin cell line, stably transfected)
T1 sequence (P25106 whole entry): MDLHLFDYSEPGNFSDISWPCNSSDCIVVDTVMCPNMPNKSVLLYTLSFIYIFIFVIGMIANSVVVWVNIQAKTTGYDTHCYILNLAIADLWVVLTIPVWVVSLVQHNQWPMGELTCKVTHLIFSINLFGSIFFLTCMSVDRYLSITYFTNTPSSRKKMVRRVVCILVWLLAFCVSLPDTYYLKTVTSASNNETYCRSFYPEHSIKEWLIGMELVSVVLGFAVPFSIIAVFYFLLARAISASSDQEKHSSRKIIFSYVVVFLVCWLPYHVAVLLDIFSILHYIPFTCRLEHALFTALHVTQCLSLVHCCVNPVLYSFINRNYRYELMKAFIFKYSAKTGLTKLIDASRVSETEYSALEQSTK
T1 sequence (P32121 whole entry partner): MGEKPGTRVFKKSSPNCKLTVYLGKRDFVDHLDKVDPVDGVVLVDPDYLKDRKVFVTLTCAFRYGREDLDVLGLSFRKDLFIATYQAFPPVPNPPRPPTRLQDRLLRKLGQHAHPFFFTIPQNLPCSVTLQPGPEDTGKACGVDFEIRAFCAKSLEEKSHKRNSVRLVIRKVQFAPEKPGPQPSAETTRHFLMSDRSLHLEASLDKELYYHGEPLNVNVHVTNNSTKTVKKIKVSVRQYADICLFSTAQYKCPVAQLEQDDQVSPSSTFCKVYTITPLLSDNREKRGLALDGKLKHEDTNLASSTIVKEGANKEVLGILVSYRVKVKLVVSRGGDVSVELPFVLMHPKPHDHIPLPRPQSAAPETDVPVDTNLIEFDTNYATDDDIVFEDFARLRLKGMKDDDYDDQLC
Description: PathHunter CHO-K1 CXCR7 b-arrestin recruitment assay (CXCR7 agonistic activity). The assay is classed as cell-based. As to conditions: PathHunter CHO-K1 CXCR7 b-arrestin cell line. Summed up: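 Stable CHO-K1 line with C-terminally ProLink-tagged CXCR7 and β-arrestin 2–EA fusion; β-arrestin recruitment restores β-gal activity, read by chemiluminescence after 1 h RT detection. Cells seeded 24 h, starved in OPTIMEM 3–4 h, exposed to compounds 90 min at 37 °C in HBSS/HEPES/BSA. Geometric-mean EC50 from repeated measurements.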
For orientation: Arrestin recruitment assays detect the binding of arrestin to an activated receptor.
Regarding `N#CCCN(Cc1ccccc1C(F)(F)F)C(=O)CNc1cccc2c1CCN(CC1CC1)C2` [Example 72, N-(2-Cyano-ethyl)-2-(2-cyclopropylmethyl-1,2,3,4-tetrahydro-isoquinolin-5-ylamino)-N-(2-trifluoromethyl-benzyl)-acetamide], the EC50 was 28 nM.
In the case of `CC1Cc2c(cccc2NCC(=O)N(CCN(C)C)Cc2ccccc2C(F)(F)F)CN1CC1CC1` (racemic) [Example 212, rac-2-((2-(Cyclopropylmethyl)-3-methyl-1,2,3,4-tetrahydroisoquinolin-5-yl)amino)-N-(2-(dimethylamino)ethyl)-N-(2-(trifluoromethyl)benzyl)acetamide] it was 6 nM; in that of `CN(C)CCN(Cc1ccccc1C(F)(F)F)C(=O)CNc1cccc2c1CN(CC1CCCCC1)CC2` [compound 554, 2-(2-Cyclohexylmethyl-1,2,3,4-tetrahydro-isoquinolin-8-ylamino)-N-(2-dimethylamino-ethyl)-N-(2-trifluoromethyl-benzyl)-acetamide], 5 nM; in that of `CNCCN(Cc1ncccc1C(F)(F)F)C(=O)CNc1cccc2c1CCN(C(=O)C1CCOC1)C2` (racemic) [compound 417], 15 nM.
The same measure for `CN(C)CCN(Cc1ncccc1Br)C(=O)CNc1cccc2c1CN(CC1CC1)CC2` [compound 486, N-(3-Bromo-pyridin-2-ylmethyl)-2-(2-cyclopropylmethyl-1,2,3,4-tetrahydro-isoquinolin-8-ylamino)-N-(2-dimethylamino-ethyl)-acetamide]: 5 nM.
Take `CC(C)C(C)N1CCc2c(cccc2NCC(=O)N(CCN(C)C)Cc2ccccc2C(F)(F)F)C1` (racemic) [Example 355, rac-N-(2-Dimethylamino-ethyl)-2-[2-(1,2-dimethyl-propyl)-1,2,3,4-tetrahydro-isoquinolin-5-ylamino]-N-(2-trifluoromethyl-benzyl)-acetamide]: the response was half-maximal at 10 nM (EC50).
The same measure for `CN(C)CCN(Cc1ccccc1Br)C(=O)CNc1cccc2c1CCN(CC1CC1)C2` [Example 234, N-(2-Bromo-benzyl)-2-(2-cyclopropylmethyl-1,2,3,4-tetrahydro-isoquinolin-5-ylamino)-N-(2-dimethylamino-ethyl)-acetamide]: 3 nM.
In the case of `CN(C)CCN(Cc1ncccc1C(F)(F)F)C(=O)CNc1ccc(F)c2c1CCN(CC1CC1)C2` [Example 289, 2-(2-Cyclopropylmethyl-8-fluoro-1,2,3,4-tetrahydro-isoquinolin-5-ylamino)-N-(2-dimethylamino-ethyl)-N-(3-trifluoromethyl-pyridin-2-ylmethyl)-acetamide] it was 16 nM; in that of `CCC(=O)N1CCc2cccc(NCC(=O)N(CCN(C)C)Cc3ccccc3)c2C1` [Example 188, N-Benzyl-N-(2-dimethylamino-ethyl)-2-(2-propionyl-1,2,3,4-tetrahydro-isoquinolin-8-ylamino)-acetamide], 71 nM.
The same measure for `CCN1CCc2cccc(OC3(C(=O)N(CCN(C)C)Cc4ccccc4C(F)(F)F)CCC3)c2C1` [compound 549]: 257 nM.
Regarding `CCN1CCc2cccc(NCC(=O)N(CCN(C)C)Cc3cccc(C)c3)c2C1` [compound 495], a half-maximal response (EC50) required 63 nM.
Compound `O=C(CNc1cccc2c1CCN(CC1CC1)C2)N(CCC(F)(F)F)Cc1ccccc1C(F)(F)F` [Example 224, 2-(2-Cyclopropylmethyl-1,2,3,4-tetrahydro-isoquinolin-5-ylamino)-N-(2-trifluoromethyl-benzyl)-N-(3,3,3-trifluoro-propyl)-acetamide] displayed an EC50 of 52 nM.
The compound `O=C(CNc1cccc2c1CN(CC1CC1)CC2)N(CCN1CCCC(F)(F)C1)Cc1ncccc1C(F)(F)F` [compound 480, 2-(2-Cyclopropylmethyl-1,2,3,4-tetrahydro-isoquinolin-8-ylamino)-N-[2-(3,3-difluoro-piperidin-1-yl)-ethyl]-N-(3-trifluoromethyl-pyridin-2-ylmethyl)-acetamide] registered an EC50 of 28 nM.
The same measure for `CNCCN(Cc1ncccc1C(F)(F)F)C(=O)CNc1cccc2c1CCN(C(=O)C1CC1)C2` [compound 410, 2-(2-Cyclopropanecarbonyl-1,2,3,4-tetrahydro-isoquinolin-5-ylamino)-N-(2-methylamino-ethyl)-N-(3-trifluoromethyl-pyridin-2-ylmethyl)-acetamide]: 5 nM; for `CN(C)CCN(Cc1ccc(OC(F)(F)F)cc1)C(=O)CNc1cccc2c1CN(CC1CC1)CC2` [compound 473]: 102 nM.
Take `CCN1CCc2cccc(NCC(=O)N(CCN(C)C)Cc3ccc(OC)cc3)c2C1` [compound 499]: a half-maximal effect (EC50) was put at 245 nM.
The same measure for `C#CCN(C)CCN(Cc1ccccc1C(F)(F)F)C(=O)CNc1cccc2c1CCN(CC1CC1)C2` [Example 246, 2-(2-Cyclopropylmethyl-1,2,3,4-tetrahydro-isoquinolin-5-ylamino)-N-[2-(methyl-prop-2-ynyl-amino)-ethyl]-N-(2-trifluoromethyl-benzyl)-acetamide]: 14 nM; for `CCN1CCc2cccc(NCC(=O)N(CCN(C)C)Cc3ccc(F)cc3)c2C1` [compound 504]: 93 nM.
Compound `CCN1CCc2c(/C=C/C(=O)N(CCN(C)C)Cc3ccccc3C(F)(F)F)cccc2C1` [compound 149, (E)-N-(2-Dimethylamino-ethyl)-3-(2-ethyl-1,2,3,4-tetrahydro-isoquinolin-5-yl)-N-(2-trifluoromethyl-benzyl)-acrylamide] returned a concentration giving a half-maximal response (EC50) of 0.6 nM.
The compound `CN(C)CCN(Cc1ccncn1)C(=O)CNc1cccc2c1CCN(CC1CC1)C2` [Example 255, 2-(2-Cyclopropylmethyl-1,2,3,4-tetrahydro-isoquinolin-5-ylamino)-N-(2-dimethylamino-ethyl)-N-pyrimidin-4-ylmethyl-acetamide] gave an EC50 of 390 nM.
In the case of `CC(C)CN1CCc2c(cccc2OCC(=O)N(CCN(C)C)Cc2ccccc2)C1` [compound 168, N-Benzyl-N-(2-dimethylamino-ethyl)-2-(2-isobutyl-1,2,3,4-tetrahydro-isoquinolin-5-yloxy)-acetamide] it was 20 nM.
Regarding `CN(C)CCN(Cc1ccccc1)C(=O)CNc1cccc2c1CCN(C)C2` [compound 106], the EC50 is 100 nM.
Take `CN1CCC(N(Cc2ccccc2C(F)(F)F)C(=O)/C=C/c2cccc3c2CCN(CC2CC2)C3)CC1` [compound 152, (E)-3-(2-Cyclopropylmethyl-1,2,3,4-tetrahydro-isoquinolin-5-yl)-N-(1-methyl-piperidin-4-yl)-N-(2-trifluoromethyl-benzyl)-acrylamide]: the EC50 was 8 nM.
The same measure for `O=C(CNc1cccc2c1CN(CC1CC1)CC2)N(CCN1CCC(F)(F)C1)Cc1ncccc1C(F)(F)F` [compound 481, 2-(2-Cyclopropylmethyl-1,2,3,4-tetrahydro-isoquinolin-8-ylamino)-N-[2-(3,3-difluoro-pyrrolidin-1-yl)-ethyl]-N-(3-trifluoromethyl-pyridin-2-ylmethyl)-acetamide]: 41 nM; for `CCN1CCc2cccc(NCC(=O)N(CCCN(C)C)Cc3ccccc3)c2C1` [compound 507]: 74 nM.
The same measure for `CNCCN(Cc1ncccc1C(F)(F)F)C(=O)CNc1cccc2c1CCN(C(=O)NC(C)(C)C)C2` [compound 432, 5-({[(2-Methylamino-ethyl)-(3-trifluoromethyl-pyridin-2-ylmethyl)-carbamoyl]-methyl}-amino)-3,4-dihydro-1H-isoquinoline-2-carboxylic acid tert-butylamide]: 42 nM.
